Literature values, collected in patent publication US6395721B1, “Low potency unpreserved sterile topical corticosteroid compositions for dermatitis” (priority 2000, dated 2002).

Assays:
skin of human volunteers = system: skin of human volunteers; set-up: key to Ranking of Topical steroids for Psoriasis (potency group): I: Group 1 is the most potent; potency descends with each group to Group VII; III: potency descends with each group to Group VII; IV: potency descends with each group to Group VII; potency descends with each group to Group VII; potency descends with each group to Group VII; Group VII, which is least potent; details: for potency rating of steroid compositions on a scale of 1 to 7, with 7 being the least potent: rating in words, Cornell and Stoughton; for potency of corticosteroid (in words): as worded for contemplated compositions, aldomethasone and desonide at 0.05%; for Ranking of Topical steroids for Psoriasis (potency group): no significant difference of agents within any given group
stripped skin = details: applied to stripped skin, which develops erythema

| Molecule | potency rating of steroid compositions on a scale of 1 to 7, with 7 being the least potent (skin of human volunteers) | potency of corticosteroid (in words) (skin of human volunteers) | Ranking of Topical steroids for Psoriasis (potency group) (skin of human volunteers) | effect on erythema of stripped skin (stripped skin) |
| --- | --- | --- | --- | --- |
| CCCC(=O)O[C@]1(C(=O)CO)CC[C@H]2[C@@H]3CCC4=CC(=O)CC[C@]4(C)[C@H]3[C@@H](O)C[C@@]21C [hydrocortisone butyrate] | Among the least potent steroids |  |  |  |
| CC1(C)O[C@@H]2C[C@H]3[C@@H]4CCC5=CC(=O)C=C[C@]5(C)[C@H]4[C@@H](O)C[C@]3(C)[C@]2(C(=O)CO)O1 [desonide] | Among the least potent steroids | intermediate potency |  |  |
| C[C@]12CCC(=O)C=C1CC[C@@H]1[C@@H]2[C@@H](O)C[C@@]2(C)[C@H]1CC[C@]2(O)C(=O)CO [hydrocortisone] | Among the least potent steroids |  | VII. | develop blanching |
| C[C@]12CCC(=O)C=C1CC[C@@H]1[C@@H]2C(=O)C[C@@]2(C)[C@H]1CC[C@]2(O)C(=O)CO [cortisone] | Among the least potent steroids |  |  |  |
| C[C@H]1C[C@H]2[C@@H]3CCC4=CC(=O)C=C[C@]4(C)[C@@]3(F)[C@@H](O)C[C@]2(C)[C@@]1(O)C(=O)CCl [Clobetasol] | among the most potent steroids |  |  |  |
| aldomethasone |  | low potency |  |  |
| C[C@]12C=CC(=O)C=C1CC[C@@H]1[C@@H]2[C@@H](O)C[C@@]2(C)[C@H]1CC[C@]2(O)C(=O)CO [prednisolone] |  |  | VII. |  |
| flumethalone |  |  | VII. |  |
| aldomethasone diproprionate | Among the least potent steroids | low potency |  |  |
| CCCCC(=O)O[C@]1(C(=O)CO)CC[C@H]2[C@@H]3CCC4=CC(=O)CC[C@]4(C)[C@H]3[C@@H](O)C[C@@]21C [hydrocortisone valerate] | Among the least potent steroids |  |  |  |
